According to patent publication US11905264B1, “N′-(2-(5-(4-chlorophenyl)-1,3,4-oxadiazol-2-ylthio)acetoxy)-4-nitrobenzimidamide as an antimicrobial compound” (KING FAISAL UNIVERSITY, priority 2023, dated 2024):

Assays:
Format in all cases: cell-based
[1] = tested on: Aspergillus flavus; experiment: Agar plate disc-diffusion, antifungal inhibition zone; conditions: Sabouraud's dextrose agar, 72 hours
Procedure: (§1) The agar plate disc-diffusion method was applied. […] The discs were then placed onto the surface of agar plates (nutrient agar for bacteria and Sabouraud's dextrose agar for fungi) seeded with the test organism. Each plate contained 15 mL of the agar medium, previously seeded with 0.2 mL of the broth culture of each organism pregrown for 18 hours. The plates were incubated at 37° C. for 48 hours and 72 hours for fungi. The inhibition zones were measured in mm. Discs impregnated with DMSO were used as a control, and their inhibition zone was subtracted from the tested compound's actual inhibition zone.

[2] = tested on: Chrysosporium keratinophilum; experiment: as above; conditions: Sabouraud's dextrose agar, 72 hours
Procedure: as §1

[3] = tested on: Escherichia coli; experiment: Agar plate disc-diffusion, antibacterial inhibition zone; conditions: Gram negative, nutrient agar, 37° C.
Procedure: as §1

[4] = tested on: Staphylococcus aureus; experiment: as above; conditions: Gram positive, nutrient agar, 37° C.
Procedure: as §1

[5] = tested on: Bacillus cereus; experiment: as above; conditions: Gram positive, nutrient agar, 37° C.
Procedure: as §1

[6] = tested on: Pseudomonas aeruginosa; experiment: as above; conditions: Gram negative, nutrient agar, 37° C.
Procedure: as §1

[7] = A = concentration of comp. = 10,000 μL
[8] = B = concentration of comp. = 30,000 μL
[9] = C = concentration of comp. = 50,000 μL

N/C(=N\OC(=O)CSc1nnc(-c2ccc(Cl)cc2)o1)c1ccc([N+](=O)[O-])cc1 [Compound 3, N′-(2-(5-(4-chlorophenyl)-1,3,4-oxadiazol-2-ylthio)acetoxy)-4-nitrobenzimidamide]
inhibition zone, Aspergillus flavus, A [1, 7]: 23 mm
inhibition zone, Aspergillus flavus, B [1, 8]: 27 mm
inhibition zone, Aspergillus flavus, C [1, 9]: 39 mm
inhibition zone, Chrysosporium keratinophilum, A ([2]; A =): 26 mm
inhibition zone, Chrysosporium keratinophilum, B [2, 8]: 28 mm
inhibition zone, Chrysosporium keratinophilum, C [2, 9]: 41 mm
inhibition zone, Escherichia coli, A [3, 7]: 27 mm
inhibition zone, Escherichia coli, B [3, 8]: 31 mm
inhibition zone, Escherichia coli, C [3, 9]: 50 mm
inhibition zone, Staphylococcus aureus, A [4, 7]: 17 mm
inhibition zone, Staphylococcus aureus, B [4, 8]: 20 mm
inhibition zone, Staphylococcus aureus, C [4, 9]: 37 mm
inhibition zone, Bacillus Cereus, A [5, 7]: 27 mm
inhibition zone, Bacillus Cereus, B [5, 8]: 29 mm
inhibition zone, Bacillus Cereus, C [5, 9]: 40 mm
inhibition zone, Pseudomonas aeruginosa, A [6, 7]: 22 mm
inhibition zone, Pseudomonas aeruginosa, B [6, 8]: 26 mm
inhibition zone, Pseudomonas aeruginosa, C [6, 9]: 40 mm
